Laboratory results from US11534441B2, “MAP4K1 inhibitors” (Blueprint Medicines Corporation, priority 2020, dated 2022).

Molecular target: MAP4K1 (HPK1) (Homo sapiens (Human), UniProt Q92918)
Test: MAP4K1 (HPK1) biochemical enzymatic activity, electrophoretic mobility shift (EZReader 2), ATP at APPKM (26 μM)
Description: MAP4K1 (HPK1) and relevant off-target enzymatic activity was monitored using the Perkin Elmer electrophoretic mobility shift technology platform—the EZReader 2. […] Within the linear, steady-state phase of the kinase enzymatic reaction, the mixed pool of phosphorylated (product) and non-phosphorylated (substrate) peptides was passed through the microfluidic system of the PerkinElmer EZ Reader 2, under an applied electric potential difference. The presence of the phosphate group on the product peptide provided a difference in mass and charge between that of the substrate peptide, resulting in a separation of the substrate and product pools in the sample (Perrin et al. 2010). As the product and substrate peptide mixture passes the lasers within the instrument, these pools are detected (λex=488 nm, λent=568 nm) and resolved as separate peaks. The ratio between these peaks reflects the activity of the compound at that concentration, in that well, under those conditions.
Inhibitors were dissolved in 100% DMSO at a stock concentration of 10 mM. A 100×, 10-point, 4-fold serial dilution of each inhibitor was created in 100% DMSO either manually or on a Hamilton STAR liquid handler, starting at a relevant concentration, usually 1 mM. A volume of 0.130 μL of each concentration was transferred to the relevant wells of a 384-well plate (Greiner 781 201) in duplicate using a TTPLabtech Mosquito nano-litre dispenser. Using a Multidrop Combi, the remaining constituents of the kinase reaction were added to the 130 nL of dosed compound as follows (see table below for final reaction details):
Enzyme activity assays at the ^APPKM for ATP or 1 mM ATP: In each well of a 384-well plate, 0.1-15 nM of untreated enzyme was incubated in a total of 13 μL of buffer (100 mM HEPES pH 7.5, 0.015% Brij 35, 10 mM MgCl2, 1 mM DTT) with 1.5 μM fluorescent peptid and 20-1000 μM ATP, at 25° C., for 60-180 minutes in the presence or absence of a dosed concentration series of compound (1% DMSO final concentration). The kinase reactions were stopped by the addition of 70 μl of Stop buffer (100 mM HEPES pH 7.5, 0.015% Brij 35, 35 mM EDTA and 0.2% of Coating Reagent 3 (Caliper Lifesciences)). The plates were read on a Caliper EZReader 2 as described above.

Chain of MAP4K1 (HPK1) (Q92918 whole entry): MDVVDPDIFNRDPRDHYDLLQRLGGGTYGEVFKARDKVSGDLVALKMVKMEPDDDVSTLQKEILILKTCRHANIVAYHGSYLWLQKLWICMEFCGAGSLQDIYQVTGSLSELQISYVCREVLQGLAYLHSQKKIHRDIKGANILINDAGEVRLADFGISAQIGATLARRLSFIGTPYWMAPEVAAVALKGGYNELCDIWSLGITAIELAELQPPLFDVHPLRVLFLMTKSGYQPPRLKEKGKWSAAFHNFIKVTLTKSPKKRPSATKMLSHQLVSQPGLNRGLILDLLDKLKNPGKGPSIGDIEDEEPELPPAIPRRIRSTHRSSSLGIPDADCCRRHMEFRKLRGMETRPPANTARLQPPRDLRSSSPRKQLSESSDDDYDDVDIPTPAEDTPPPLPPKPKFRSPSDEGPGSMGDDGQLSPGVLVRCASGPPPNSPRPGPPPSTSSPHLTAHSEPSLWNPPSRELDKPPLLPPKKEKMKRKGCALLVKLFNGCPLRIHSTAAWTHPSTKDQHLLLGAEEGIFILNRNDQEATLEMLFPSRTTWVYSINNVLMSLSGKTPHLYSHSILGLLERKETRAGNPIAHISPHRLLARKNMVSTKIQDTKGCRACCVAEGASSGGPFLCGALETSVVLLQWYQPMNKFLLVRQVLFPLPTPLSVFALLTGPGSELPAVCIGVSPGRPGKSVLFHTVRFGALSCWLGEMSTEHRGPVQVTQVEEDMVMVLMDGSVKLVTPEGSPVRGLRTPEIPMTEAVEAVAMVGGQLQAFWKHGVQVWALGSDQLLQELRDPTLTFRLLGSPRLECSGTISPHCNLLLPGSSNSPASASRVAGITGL

SMILES | IC50 (class designation) | IC50 (numeric value)
C[C@@H]1OC(=O)c2ccc(Nc3cc4c([C@](C)(N)C5CC5)cnc(OC5(C)CC5)c4cn3)nc2[C@H]1C [Compound 89] | 1.1 to 10 nM | 5.12 nM
C[C@@H]1c2nc(Nc3cc4c([C@@](C)(N)C5CC5)cnc(OC5(C)CC5)c4cn3)ccc2C(=O)OC1(C)C [Compound 90] | 1.1 to 10 nM | 3.42 nM
CC[C@@](C)(N)c1cnc(OC2(C)CC2)c2cnc(Nc3ccc4c(n3)[C@@H](C)[C@@H](C)OC4=O)cc12 [Compound 93] | 1.1 to 10 nM | 3.65 nM
C[C@@H]1c2nc(Nc3cc4c([C@@](C)(N)C5CC5)cnc(OC5(C)CC5)c4cn3)ccc2C(=O)O[C@@H]1C [Compound 95] | 1.1 to 10 nM | 4.54 nM
COc1ncc([C@@](C)(N)C2CC2)c2cc(Nc3ccc4c(n3)C(C)(C)OC4=O)ncc12 [Compound 98] | > 10 nM | 19.1 nM
CC1(C)Cc2nc(Nc3cc4c(C(C)(C)N)ccc(Cl)c4cn3)ccc2C(=O)O1 [Compound 104, 2-((5-(2-Aminopropan-2-yl)-8-chloroisoquinolin-3-yl)amino)-7,7-dimethyl-7,8-dihydro-5H-pyrano[4,3-b]pyridin-5-one] | < 0.3 nM | 0.13 nM
CC(C)(N)c1cnc(OC2CC2)c2cnc(Nc3ccc4c(n3)C3(CC3)COC4=O)cc12 [Compound 107] | 0.31 to 1 nM | 0.62 nM
C[C@H]1OC(=O)c2ccc(Nc3cc4c(C(C)(C)N)cnc(OC5CC5)c4cn3)nc2C12CC2 [Compound 119] | < 0.3 nM | 0.12 nM
C[C@@H]1OC(=O)c2ccc(Nc3cc4c(C(C)(C)N)cnc(OC5CC5)c4cn3)nc2C12CC2 [Compound 120] | 0.31 to 1 nM | 0.5 nM
CC[C@](C)(N)c1cnc(NC2CC2)c2cnc(Nc3ccc4c(n3)[C@@H](C)[C@H](C)OC4=O)cc12 [Compound 122] | < 0.3 nM | 0.16 nM
CC1(C)CCc2nc(Nc3cc4c(C(C)(C)N)cnc(OC5CC5)c4cn3)ccc2C(=O)O1 [Compound 125] | 1.1 to 10 nM | 1.84 nM
CC[C@H]1c2nc(Nc3cc4c(C(C)(C)N)cnc(OC5CC5)c4cn3)ccc2C(=O)O[C@H]1C [Compound 128] | 1.1 to 10 nM | 1.09 nM
CC[C@@](C)(N)c1cnc(OC2CC2)c2cnc(Nc3ccc4c(n3)[C@](C)(CC)OC4=O)cc12 [Compound 129] | < 0.3 nM | 0.11 nM
CC[C@H]1OC(=O)c2ccc(Nc3cc4c(C(C)(C)N)cnc(OC5CC5)c4cn3)nc2[C@@H]1C [Compound 130] | 0.31 to 1 nM | 0.46 nM
CC[C@@H]1OC(=O)c2ccc(Nc3cc4c(C(C)(C)N)cnc(OC5CC5)c4cn3)nc2[C@H]1C [Compound 134] | 1.1 to 10 nM | 1.33 nM
C[C@@H]1OC(=O)c2ccc(Nc3cc4c(C(C)(C)N)cnc(OC5CC5)c4cn3)nc2C1(C)C [Compound 137] | 0.31 to 1 nM | 0.46 nM
CCCOc1ncc([C@](C)(N)CC)c2cc(Nc3ccc4c(n3)[C@@H](C)[C@H](C)OC4=O)ncc12 [Compound 142] | < 0.3 nM | 0.2 nM
CCCOc1ncc([C@](C)(N)CC)c2cc(Nc3ccc4c(n3)CC(C)(C)OC4=O)ncc12 [Compound 143] | 0.31 to 1 nM | 0.31 nM
CCCOc1ncc([C@@](C)(N)CC)c2cc(Nc3ccc4c(n3)CC(C)(C)OC4=O)ncc12 [Compound 144] | 1.1 to 10 nM | 3.89 nM
CCCOc1ncc([C@@](C)(N)CC)c2cc(Nc3ccc4c(n3)[C@@H](C)[C@H](C)OC4=O)ncc12 [Compound 145] | 1.1 to 10 nM | 1.77 nM

SMILES | IC50 (class designation) | IC50 (numeric value)
C[C@@H]1OC(=O)c2ccc(Nc3cc4c([C@](C)(N)C5CC5)cnc(NC5CC5)c4cn3)nc2[C@H]1C [Compound 149] | < 0.3 nM | 0.2 nM
C[C@@H]1OC(=O)c2ccc(Nc3cc4c([C@@](C)(N)C5CC5)cnc(NC5CC5)c4cn3)nc2[C@H]1C [Compound 150] | 1.1 to 10 nM | 5.24 nM
COc1ncc(C(C)(C)NC2CCC2)c2cc(Nc3ccc4c(n3)CC(C)(C)OC4=O)ncc12 [Compound 158, 2-((5-(2-(Cyclobutylamino)propan-2-yl)-8-methoxy-2,7-naphthyridin-3-yl)amino)-7,7-dimethyl-7,8-dihydro-5H-pyrano[4,3-b]pyridin-5-one] | 1.1 to 10 nM | 6.46 nM
C[C@@H]1OC(=O)c2ccc(Nc3cc4c(C(C)(C)N)cnc(O[C@@H]5CCOC5)c4cn3)nc2[C@H]1C [Compound 160] | 1.1 to 10 nM | 1.25 nM
C[C@@H]1OC(=O)c2ccc(Nc3cc4c(C(C)(C)N)cnc(O[C@H]5C[C@H](F)C5)c4cn3)nc2[C@H]1C [Compound 161] | 1.1 to 10 nM | 1.37 nM
C[C@@H]1OC(=O)c2ccc(Nc3cc4c(C(C)(C)N)cnc(OCC5(F)CC5)c4cn3)nc2[C@H]1C [Compound 162] | < 0.3 nM | 0.24 nM
C[C@@H]1OC(=O)c2ccc(Nc3cc4c(C(C)(C)N)cnc(O[C@H]5C[C@@H](F)C5)c4cn3)nc2[C@H]1C [Compound 163] | < 0.3 nM | 0.25 nM
CC1(C)Cc2nc(Nc3cc4c([C@@](C)(N)C5CCC5)cnc(OC5CC5)c4cn3)ccc2C(=O)O1 [Compound 169] | 1.1 to 10 nM | 
CC1(C)Cc2nc(Nc3cc4c(C(C)(C)NCCO)cnc(OC5CC5)c4cn3)ccc2C(=O)O1 [Compound 177, 2-((8-Cyclopropoxy-5-(2-((2-hydroxyethyl)amino)propan-2-yl)-2,7-naphthyridin-3-yl)amino)-7,7-dimethyl-7,8-dihydro-5H-pyrano[4,3-b]pyridin-5-one] | 1.1 to 10 nM | 6.52 nM
CC1(Oc2ncc([C@](C)(N)C3CC3)c3cc(Nc4ccc5c(n4)C(C)(C)COC5=O)ncc23)CC1 [Compound 185] | 0.31 to 1 nM | 0.35 nM
C[C@@H]1OC(=O)c2ccc(Nc3cc4c(C(C)(C)N)cnc(OC5(C)CC5)c4cn3)nc2C1(C)C [Compound 186] | 0.31 to 1 nM | 0.4 nM
CC[C@](C)(N)c1cnc(OC2CC2)c2cnc(Nc3ccc4c(n3)C3(CC3)[C@H](C)OC4=O)cc12 [Compound 187] | < 0.3 nM | 0.06 nM
COC[C@@](C)(N)c1cnc(OC2CC2)c2cnc(Nc3ccc4c(n3)[C@H](C)[C@H](C)OC4=O)cc12 [Compound 190] | < 0.3 nM | 0.19 nM
CC[C@@H](N)c1cnc(OC2(C)CC2)c2cnc(Nc3ccc4c(n3)[C@@H](C)C(C)(C)OC4=O)cc12 [Compound 191] | 0.31 to 1 nM | 0.53 nM
CC(C)(N)c1cnc(OC2CC2)c2cnc(Nc3ccc4c(n3)C3(CC3)C(C)(C)OC4=O)cc12 [Compound 195] | < 0.3 nM | 0.27 nM
C[C@@H]1OC(=O)c2ccc(Nc3cc4c(C(C)(C)N)cnc(OC5(C)COC5)c4cn3)nc2[C@H]1C [Compound 197] | 0.31 to 1 nM | 0.34 nM
CC1(Oc2ncc(C(C)(C)N)c3cc(Nc4cnc5c(c4)C(=O)C(C)(C)OC5=O)ncc23)COC1 [Compound 198] | < 0.3 nM | 0.27 nM
CC1(Oc2ncc(C(C)(C)N)c3cc(Nc4ccc5c(n4)C4(CC4)C(C)(C)OC5=O)ncc23)CC1 [Compound 199] | 0.31 to 1 nM | 0.36 nM
COC[C@@](C)(N)c1cnc(OC2CC2)c2cnc(Nc3ccc4c(n3)CC(C)(C)OC4=O)cc12 [Compound 200] | 0.31 to 1 nM | 0.48 nM
COC[C@@](C)(N)c1cnc(OC)c2cnc(Nc3ccc4c(n3)[C@@H](C)C(C)(C)OC4=O)cc12 [Compound 201] | < 0.3 nM | 0.14 nM
